Legend:
[1] = target: T1, AURKA (Homo sapiens, UniProt O14965); assay: KINOMEscan panel screen; format: binding; settings: read-out: Percent Control(%)
T1 construct: purchased DiscoveRx KINOMEscan (Ambit Biosciences)

[2] = target: T2, CDC2L2 (Homo sapiens, UniProt Q9UQ88); assay: KINOMEscan panel screen; format: binding; settings: read-out: Percent Control(%)
T2 construct: purchased DiscoveRx KINOMEscan (Ambit Biosciences)

[3] = target: T3, CDK8 (Homo sapiens, UniProt P49336); assay: KINOMEscan panel screen; format: binding; settings: read-out: Percent Control(%)
T3 construct: purchased DiscoveRx KINOMEscan (Ambit Biosciences)

[4] = target: T4, DLK (Homo sapiens, UniProt Q12852); assay: KINOMEscan panel screen; format: binding; settings: read-out: Percent Control(%)
T4 sequence (Q12852 1-859): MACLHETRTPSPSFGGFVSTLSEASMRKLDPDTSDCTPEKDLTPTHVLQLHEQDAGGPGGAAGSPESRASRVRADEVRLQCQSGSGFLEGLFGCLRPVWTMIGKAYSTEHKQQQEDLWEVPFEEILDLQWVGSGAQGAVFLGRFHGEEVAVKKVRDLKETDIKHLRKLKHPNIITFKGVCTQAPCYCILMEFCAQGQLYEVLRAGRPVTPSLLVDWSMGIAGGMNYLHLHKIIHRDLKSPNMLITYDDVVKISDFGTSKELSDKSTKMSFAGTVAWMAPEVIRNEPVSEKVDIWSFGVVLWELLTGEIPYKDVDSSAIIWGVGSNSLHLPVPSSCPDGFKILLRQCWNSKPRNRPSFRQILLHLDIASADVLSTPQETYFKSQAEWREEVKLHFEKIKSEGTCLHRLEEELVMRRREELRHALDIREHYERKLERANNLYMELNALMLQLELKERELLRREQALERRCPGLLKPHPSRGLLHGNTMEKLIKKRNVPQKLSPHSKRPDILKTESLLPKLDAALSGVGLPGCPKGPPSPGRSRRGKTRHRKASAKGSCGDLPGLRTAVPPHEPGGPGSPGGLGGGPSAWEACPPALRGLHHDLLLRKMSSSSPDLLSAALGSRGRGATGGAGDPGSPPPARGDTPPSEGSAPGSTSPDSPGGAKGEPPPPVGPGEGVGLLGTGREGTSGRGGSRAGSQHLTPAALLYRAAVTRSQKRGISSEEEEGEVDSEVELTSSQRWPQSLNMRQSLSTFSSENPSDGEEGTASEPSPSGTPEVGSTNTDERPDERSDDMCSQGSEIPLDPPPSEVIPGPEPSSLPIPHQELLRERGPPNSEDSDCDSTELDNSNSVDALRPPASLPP

[5] = target: T5, DRAK1 (Homo sapiens, UniProt Q9UEE5); assay: KINOMEscan panel screen; format: binding; settings: read-out: Percent Control(%)
T5 construct: purchased DiscoveRx KINOMEscan (Ambit Biosciences)

[6] = target: T6, EPHA3 (Homo sapiens, UniProt P29320); assay: KINOMEscan panel screen; format: binding; settings: read-out: Percent Control(%)
T6 construct: purchased DiscoveRx KINOMEscan (Ambit Biosciences)

[7] = target: T7, EPHB4 (Homo sapiens, UniProt P54760); assay: KINOMEscan panel screen; format: binding; settings: read-out: Percent Control(%)
T7 construct: purchased DiscoveRx KINOMEscan (Ambit Biosciences)

[8] = target: T8, PAK4 (Homo sapiens, UniProt O96013); assay: KINOMEscan panel screen; format: binding; settings: read-out: Percent Control(%)
T8 construct: DNA tag (qPCR read-out); purchased Ambit Biosciences (KINOMEscan service)

[9] = target: T9, PRKCQ (Homo sapiens, UniProt Q04759); assay: KINOMEscan panel screen; format: binding; settings: read-out: Percent Control(%)
T9 construct: purchased DiscoveRx KINOMEscan (Ambit Biosciences)

[10] = target: T10, QSK (Homo sapiens, UniProt Q9Y2K2); assay: KINOMEscan panel screen; format: binding; settings: read-out: Percent Control(%)
T10 construct: purchased DiscoveRx KINOMEscan (Ambit Biosciences)

[11] = system: MV4-11 tumor xenograft; assay: MV4-11 tumor xenograft model; format: in vivo
Protocol: Female 5- to 6-week-old NOD-SCID mice (Beijing HFK Bioscience) were housed in a sterile environment and fed a standard diet ad libitum. […] A 100- μl aliquot of the cell suspension was injected subcutaneously into the hind flank of each mouse to establish the xenograft model. […] The tumor volume was calculated using the following formula: volume = a × b^2/2 (a, long diameter; b, short diameter).
Paraffin-embedded tumors were subjected to immunostaining with Ki67 (Thermo Fisher), transferase-mediated dUTP nick-end labeling (TUNEL, Thermo Fisher). The representative images were taken on a LEICA DM 2500 microscope with a LEICA DFC425 C camera. Image acquisition software: LAS V3.7.
(a) MV4-11 cells (10^7 cells/mouse) were s.c. inoculated into NOD-SCID mice. […] The tumor volume and body weight were measured every 3 days during the treatment. The mean values ± SD are shown. […] Ki67 and TUNEL were detected with immunohistochemical. Representative images were shown. […] Tumors were harvested at the indicated time points, and the FLT3 signaling pathway was detected using western blot assays. The experiments were performed on three groups of mice. The results of the other two groups are given in Supplementary Data (Supplementary Fig. S8). […] The results shown in the histogram are the statistic data of three groups of mice. ns, not statistically significant, *P < 0.05, **P < 0.01. (e) The same harvested tumors were detected using real-time qPCR assays to test the expression of AXIN2 and NKD1 (the target genes of Wnt/β-catenin pathway). All results were normalized to the level of GAPDH (mean ± SEM from triplicate groups). ns, not statistically significant, *P < 0.05, **P < 0.01. (f) Kaplan-Meier plot of survival. […] The plasma concentrations were determined using liquid–liquid extraction followed by high-performance liquid chromatography (HPLC) with tandem mass spectrometric detection.

T8 sequence (O96013 whole entry): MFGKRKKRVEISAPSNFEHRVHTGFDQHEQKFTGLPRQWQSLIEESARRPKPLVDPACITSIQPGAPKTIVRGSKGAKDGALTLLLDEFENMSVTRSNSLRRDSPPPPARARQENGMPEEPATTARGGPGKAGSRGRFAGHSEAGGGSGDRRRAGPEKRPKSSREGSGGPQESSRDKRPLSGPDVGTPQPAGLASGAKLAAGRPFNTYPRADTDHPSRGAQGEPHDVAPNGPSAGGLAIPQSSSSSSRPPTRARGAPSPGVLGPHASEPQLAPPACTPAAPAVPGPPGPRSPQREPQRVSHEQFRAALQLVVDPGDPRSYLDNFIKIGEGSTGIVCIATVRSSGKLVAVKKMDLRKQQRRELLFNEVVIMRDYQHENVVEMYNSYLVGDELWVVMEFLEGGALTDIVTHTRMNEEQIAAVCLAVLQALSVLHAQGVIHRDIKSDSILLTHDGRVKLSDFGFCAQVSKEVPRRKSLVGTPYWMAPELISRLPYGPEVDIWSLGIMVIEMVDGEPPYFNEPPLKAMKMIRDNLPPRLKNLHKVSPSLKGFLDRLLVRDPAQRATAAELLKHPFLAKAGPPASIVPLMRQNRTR
T2 sequence (Q9UQ88 whole entry): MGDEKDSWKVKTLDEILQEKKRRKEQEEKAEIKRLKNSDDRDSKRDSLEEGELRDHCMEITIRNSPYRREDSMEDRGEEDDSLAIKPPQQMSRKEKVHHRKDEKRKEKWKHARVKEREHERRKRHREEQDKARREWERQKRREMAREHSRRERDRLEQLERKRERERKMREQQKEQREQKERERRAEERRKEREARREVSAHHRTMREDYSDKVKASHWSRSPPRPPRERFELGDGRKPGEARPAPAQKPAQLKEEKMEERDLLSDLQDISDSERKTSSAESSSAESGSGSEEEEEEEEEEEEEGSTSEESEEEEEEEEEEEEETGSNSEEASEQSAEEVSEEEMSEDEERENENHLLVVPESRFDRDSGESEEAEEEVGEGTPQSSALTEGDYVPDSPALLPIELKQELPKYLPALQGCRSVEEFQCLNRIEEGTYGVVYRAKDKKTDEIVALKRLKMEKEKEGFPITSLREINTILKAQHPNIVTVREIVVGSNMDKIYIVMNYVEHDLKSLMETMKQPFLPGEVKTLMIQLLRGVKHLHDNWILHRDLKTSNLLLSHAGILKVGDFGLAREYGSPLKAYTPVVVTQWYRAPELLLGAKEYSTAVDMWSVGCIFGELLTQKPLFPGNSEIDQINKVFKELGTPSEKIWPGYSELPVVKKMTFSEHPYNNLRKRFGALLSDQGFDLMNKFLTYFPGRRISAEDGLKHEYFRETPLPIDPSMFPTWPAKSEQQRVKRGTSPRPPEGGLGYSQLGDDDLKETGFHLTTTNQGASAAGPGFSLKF
T10 sequence (Q9Y2K2 whole entry): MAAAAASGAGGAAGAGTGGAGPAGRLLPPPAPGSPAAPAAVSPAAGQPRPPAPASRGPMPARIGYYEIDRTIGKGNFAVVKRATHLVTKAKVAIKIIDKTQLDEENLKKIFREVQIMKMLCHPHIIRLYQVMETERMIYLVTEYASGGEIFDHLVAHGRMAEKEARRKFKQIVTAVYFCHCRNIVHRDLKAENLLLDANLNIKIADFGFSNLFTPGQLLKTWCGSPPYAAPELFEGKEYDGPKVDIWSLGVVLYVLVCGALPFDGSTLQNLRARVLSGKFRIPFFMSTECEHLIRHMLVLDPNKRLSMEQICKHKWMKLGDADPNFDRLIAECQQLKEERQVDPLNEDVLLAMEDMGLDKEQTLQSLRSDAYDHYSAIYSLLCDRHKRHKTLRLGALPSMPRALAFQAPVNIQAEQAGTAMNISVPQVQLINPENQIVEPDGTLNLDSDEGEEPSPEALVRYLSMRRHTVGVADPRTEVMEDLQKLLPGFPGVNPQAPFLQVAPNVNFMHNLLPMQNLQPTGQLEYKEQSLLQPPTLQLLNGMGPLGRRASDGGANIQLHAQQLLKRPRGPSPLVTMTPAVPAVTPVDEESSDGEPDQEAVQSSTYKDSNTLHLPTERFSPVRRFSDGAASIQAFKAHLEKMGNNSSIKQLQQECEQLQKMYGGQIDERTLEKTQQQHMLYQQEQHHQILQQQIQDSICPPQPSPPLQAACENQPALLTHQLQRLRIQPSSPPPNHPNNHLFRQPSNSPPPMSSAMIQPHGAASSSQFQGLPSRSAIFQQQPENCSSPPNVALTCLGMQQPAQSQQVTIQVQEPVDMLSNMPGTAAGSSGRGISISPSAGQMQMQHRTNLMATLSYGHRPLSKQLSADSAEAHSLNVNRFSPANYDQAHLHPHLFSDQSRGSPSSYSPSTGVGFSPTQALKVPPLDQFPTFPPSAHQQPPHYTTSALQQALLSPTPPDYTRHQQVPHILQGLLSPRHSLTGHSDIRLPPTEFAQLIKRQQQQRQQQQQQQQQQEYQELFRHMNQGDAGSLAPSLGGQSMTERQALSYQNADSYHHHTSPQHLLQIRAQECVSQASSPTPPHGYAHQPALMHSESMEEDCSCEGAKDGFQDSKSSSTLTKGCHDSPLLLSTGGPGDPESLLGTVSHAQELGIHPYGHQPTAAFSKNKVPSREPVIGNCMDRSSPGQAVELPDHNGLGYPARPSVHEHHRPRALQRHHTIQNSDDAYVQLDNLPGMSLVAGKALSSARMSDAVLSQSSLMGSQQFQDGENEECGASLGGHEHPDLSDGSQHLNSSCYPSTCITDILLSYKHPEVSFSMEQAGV
T9 sequence (Q04759 whole entry): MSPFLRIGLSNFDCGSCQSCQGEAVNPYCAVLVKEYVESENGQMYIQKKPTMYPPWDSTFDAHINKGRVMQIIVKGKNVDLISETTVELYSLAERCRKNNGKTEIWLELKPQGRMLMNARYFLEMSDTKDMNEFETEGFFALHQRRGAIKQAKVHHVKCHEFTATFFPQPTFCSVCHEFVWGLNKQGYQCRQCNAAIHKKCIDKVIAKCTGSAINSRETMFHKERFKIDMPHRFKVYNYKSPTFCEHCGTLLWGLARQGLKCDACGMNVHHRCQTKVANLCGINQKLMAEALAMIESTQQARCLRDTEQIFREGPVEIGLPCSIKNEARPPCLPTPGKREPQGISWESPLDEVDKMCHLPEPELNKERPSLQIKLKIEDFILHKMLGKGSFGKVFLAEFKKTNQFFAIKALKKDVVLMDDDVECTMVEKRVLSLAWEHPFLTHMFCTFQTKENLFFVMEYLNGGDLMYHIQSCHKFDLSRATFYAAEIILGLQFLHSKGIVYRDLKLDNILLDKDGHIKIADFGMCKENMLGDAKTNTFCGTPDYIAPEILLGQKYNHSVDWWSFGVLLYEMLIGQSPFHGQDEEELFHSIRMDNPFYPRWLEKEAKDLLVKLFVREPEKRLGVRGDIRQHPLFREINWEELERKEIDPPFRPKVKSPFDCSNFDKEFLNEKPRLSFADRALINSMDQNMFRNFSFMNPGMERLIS
T7 sequence (P54760 16-987): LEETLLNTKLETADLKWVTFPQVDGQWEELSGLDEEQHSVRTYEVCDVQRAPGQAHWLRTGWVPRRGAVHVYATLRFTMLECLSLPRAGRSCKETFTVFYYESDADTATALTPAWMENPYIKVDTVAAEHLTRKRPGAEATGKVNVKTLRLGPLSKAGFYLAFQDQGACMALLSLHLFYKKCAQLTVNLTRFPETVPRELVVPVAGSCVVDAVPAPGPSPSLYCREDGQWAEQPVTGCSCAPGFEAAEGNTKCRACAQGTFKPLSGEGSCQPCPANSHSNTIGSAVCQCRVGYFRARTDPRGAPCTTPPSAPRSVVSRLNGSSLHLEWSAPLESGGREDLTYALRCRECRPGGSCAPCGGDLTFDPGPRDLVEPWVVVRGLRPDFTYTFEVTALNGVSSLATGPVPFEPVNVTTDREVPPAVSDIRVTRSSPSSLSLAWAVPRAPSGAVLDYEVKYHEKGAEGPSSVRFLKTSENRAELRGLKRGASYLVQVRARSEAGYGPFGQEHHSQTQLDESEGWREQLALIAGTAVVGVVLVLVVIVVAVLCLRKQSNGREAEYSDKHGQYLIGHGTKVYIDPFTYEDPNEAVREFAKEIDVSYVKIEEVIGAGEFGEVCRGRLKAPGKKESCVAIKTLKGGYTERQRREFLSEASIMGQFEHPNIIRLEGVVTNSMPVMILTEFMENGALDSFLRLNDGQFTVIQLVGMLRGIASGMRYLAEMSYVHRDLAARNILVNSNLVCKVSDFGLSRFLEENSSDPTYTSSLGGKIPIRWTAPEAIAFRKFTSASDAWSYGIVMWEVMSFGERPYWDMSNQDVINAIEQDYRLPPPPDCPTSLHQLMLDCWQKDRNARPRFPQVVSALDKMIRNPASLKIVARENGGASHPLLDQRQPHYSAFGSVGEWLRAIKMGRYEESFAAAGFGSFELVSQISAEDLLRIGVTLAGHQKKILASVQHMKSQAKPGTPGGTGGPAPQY
T3 sequence (P49336 whole entry): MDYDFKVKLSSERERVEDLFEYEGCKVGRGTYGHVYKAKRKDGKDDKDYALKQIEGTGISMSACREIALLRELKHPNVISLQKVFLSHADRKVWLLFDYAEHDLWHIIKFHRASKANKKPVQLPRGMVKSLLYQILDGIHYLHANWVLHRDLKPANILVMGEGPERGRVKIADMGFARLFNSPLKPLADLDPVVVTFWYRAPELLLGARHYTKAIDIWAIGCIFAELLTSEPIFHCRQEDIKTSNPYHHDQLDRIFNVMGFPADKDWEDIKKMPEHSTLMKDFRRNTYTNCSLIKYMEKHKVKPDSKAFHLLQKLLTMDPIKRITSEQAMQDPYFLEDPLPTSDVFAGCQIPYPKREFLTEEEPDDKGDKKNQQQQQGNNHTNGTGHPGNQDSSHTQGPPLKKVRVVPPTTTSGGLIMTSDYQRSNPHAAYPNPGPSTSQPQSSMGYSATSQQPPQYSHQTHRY

## CC(C)(C)c1cc(NC(=O)Nc2ccc(Oc3ncnc4[nH]ncc34)c(F)c2)no1 [SKLB-677, 1-(4-(1H-pyrazolo[3,4-d]pyrimidin-4-yloxy)-3-fluorophenyl)-3-(5-tert-butylisoxazol-3-yl)urea]
[1]
  remaining binding at 10 µM: 35%
[2]
  remaining binding at 10 µM: 53%
[3]
  remaining binding at 10 µM: 3%
[4]
  remaining binding at 10 µM: 86%
[5]
  remaining binding at 10 µM: 100%
[6]
  remaining binding at 10 µM: 24%
[7]
  remaining binding at 10 µM: 1%
[8]
  remaining binding at 10 µM: 100%
[9]
  remaining binding at 10 µM: 50%
[10]
  remaining binding at 10 µM: 91%
[11]; 1 mg/kg/d orally once per day for 21 days
  tumor inhibition rate: 66%
[11]; 3 mg/kg/d orally for 8 days
  tumor response: complete tumor regression
[11]; 10 mg/kg/d or 3 mg/kg/d orally
  toxicity in xenograft mice: without obvious toxicity
[11]; 10 mg/kg/d orally for 3 days
  tumor response: complete tumor regression
[11]; immunohistochemistry
  Ki67-positive cells in tumors compared with control group: evidently fewer
  percentage of TUNEL-positive cells in tumors compared with vehicle: increased
